The term EC50 denotes the concentration at which the effect is half-maximal. A higher EC50 goes with a less potent agent.

Test [1] addresses human vasopressin (hV2) receptor (Homo sapiens, UniProt P30518). The test can be described thus: luciferase-based transcriptional reporter gene assay expressing the human vasopressin (hV2) receptor. Particulars: for Selectivity hV2/hOT: EC50 ratio hV2/hOT. For orientation: Reporter assays use an easily measured gene product as a stand-in for the process of interest.
Description: (§1) Agonist activity of compounds on the hOT receptor was determined in a transcriptional reporter gene assay by transiently transfecting a hOT receptor expression DNA into a Chinese Hamster Ovary (CHO) cell line in concert with a reporter DNA containing intracellular calcium responsive promoter elements regulating expression of firefly luciferase.
(§2) The EC50 value given is the geometric mean expressed in nanomol/l (nM). Selectivity values are given as EC50 ratios.
Test [2] deals with T1, hOT receptor (Homo sapiens, UniProt P30559).
T1 sequence (P30559 1-389): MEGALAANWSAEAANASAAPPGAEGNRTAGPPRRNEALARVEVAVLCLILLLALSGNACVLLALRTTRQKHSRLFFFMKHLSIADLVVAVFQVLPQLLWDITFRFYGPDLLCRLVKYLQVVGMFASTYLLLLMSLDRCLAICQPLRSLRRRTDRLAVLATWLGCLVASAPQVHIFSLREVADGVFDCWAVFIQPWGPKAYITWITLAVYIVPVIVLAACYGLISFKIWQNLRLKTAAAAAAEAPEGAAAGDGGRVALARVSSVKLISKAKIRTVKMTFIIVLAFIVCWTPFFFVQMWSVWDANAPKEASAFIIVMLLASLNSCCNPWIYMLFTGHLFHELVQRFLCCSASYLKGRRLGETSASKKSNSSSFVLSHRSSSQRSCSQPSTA
Description: transcriptional reporter gene assay (luciferase), agonist activity on hOT receptor in transfected CHO cells.
Description: as §1, §2

Starred links: 1 amine or outer side, 2 acyl side, 3 side chain; linkers in the order of their positions; H or OH if unused. Positions of bridges follow the written chain, without caps; N, C: chain ends. Non-standard residues stand in square brackets, D forms with d. Residues, ends and D or L forms follow the SMILES beside them. N(3-phenylpropyl)Gly = O=C(O)CNCCCc1ccccc1; Phe(4-Et) = CCc1ccc(C[C@H](N)C(=O)O)cc1; X1 = O=C(CN(Cc1ccc(F)c(F)c1)[*:1])[*:2]; X4 = Cc1ccc(CCN(CC(=O)[*:2])[*:1])cc1; cisHyp = O=C(O)[C@@H]1C[C@H](O)CN1; X2 = O=C(CCC[*:2])[*:1]; Mpa = O=C(O)CCS

human vasopressin (hV2) receptor, sequence (P30518 whole entry): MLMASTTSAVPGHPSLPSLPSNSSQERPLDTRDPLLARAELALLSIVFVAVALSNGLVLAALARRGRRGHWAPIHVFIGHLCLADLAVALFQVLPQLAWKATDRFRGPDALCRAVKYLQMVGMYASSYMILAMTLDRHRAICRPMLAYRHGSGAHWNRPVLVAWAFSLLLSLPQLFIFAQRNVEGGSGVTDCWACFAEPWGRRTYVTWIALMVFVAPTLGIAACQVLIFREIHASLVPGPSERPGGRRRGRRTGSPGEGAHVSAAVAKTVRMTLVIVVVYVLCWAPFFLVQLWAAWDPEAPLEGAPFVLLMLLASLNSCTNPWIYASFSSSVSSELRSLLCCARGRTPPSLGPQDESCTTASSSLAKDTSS

Take `CC[C@H](C)[C@@H]1NC(=O)[C@H](Cc2ccc(O)cc2)NC(=O)CCSSC[C@@H](C(=O)N(CC(=O)N[C@@H](CC(C)C)C(=O)NCC(N)=O)Cc2ccc(F)c(F)c2)NC(=O)[C@H](CC(N)=O)NC(=O)[C@H](CCC(N)=O)NC1=O` [Compound 11] ([Mpa]YIQNC[X1]LG-NH2; disulfide 1-6): in test [1], the EC50 amounted to 58.5 nM and the “Selectivity hV2/hOT” value is on record as 2217. The same compound displayed a concentration for a half-maximal effect (EC50) in test [2] of 0.026 nM.

For `CCc1ccc(C[C@@H]2NC(=O)CCCSC[C@@H](C(=O)N3C[C@@H](O)C[C@H]3C(=O)N[C@@H](CC(C)C)C(=O)NCC(N)=O)NC(=O)[C@H](CC(N)=O)NC(=O)[C@H](CCC(N)=O)NC(=O)[C@H]([C@@H](C)CC)NC2=O)cc1` [Compound 6] ([Phe(4-Et)]IQNC[cisHyp]LG-NH2; linker N-5 via X2), in test [1], it took 39.9 nM to reach a half-maximal effect (EC50) and the “Selectivity hV2/hOT” value is given as 629. This compound yielded a concentration giving a half-maximal response (EC50) in test [2] of 0.064 nM.

For the compound `CC[C@H](C)[C@@H]1NC(=O)[C@H](Cc2ccc(O)cc2)NC(=O)CCSSC[C@@H](C(=O)N(CCCc2ccccc2)CC(=O)N[C@@H](CC(C)C)C(=O)NCC(N)=O)NC(=O)[C@H](CC(N)=O)NC(=O)[C@H](CCC(N)=O)NC1=O` [Compound 25] ([Mpa]YIQNC[N(3-phenylpropyl)Gly]LG-NH2; disulfide 1-6), in test [1], the EC50 amounted to 159 nM and the “Selectivity hV2/hOT” value was determined as 2736. The same compound yielded an EC50 in test [2] of 0.058 nM.

Turning to `CC[C@H](C)[C@@H]1NC(=O)[C@H](Cc2ccc(O)cc2)NC(=O)CCSSC[C@@H](C(=O)N(CCc2ccc(C)cc2)CC(=O)N[C@@H](CC(C)C)C(=O)NCC(N)=O)NC(=O)[C@H](CC(N)=O)NC(=O)[C@H](CCC(N)=O)NC1=O` [Compound 15] ([Mpa]YIQNC[X4]LG-NH2; disulfide 1-6), the EC50 in test [1] was 102 nM; in test [2], 0.04 nM. Further, the “Selectivity hV2/hOT” value in test [1] is 2533.

These data come from US8673841B2 (Ferring B.V., priority 2008, dated 2014).
